Source: ChEMBL document CHEMBL4052714, “Synthesis and antibacterial activity of novel 4″-O-(1-aralkyl-1,2,3-triazol-4-methyl-carbamoyl) azithromycin analogs” (2017)
≈ marks a conversion by molar mass, not a printed value.

How the values were obtained:
Type in all cases: functional
Streptococcus pneumoniae [1] = assay: Antibacterial activity against erythromycin-susceptible Streptococcus pneumoniae ATCC 49619
Escherichia coli = assay: Antibacterial activity against Escherichia coli ATCC 25922
Staphylococcus aureus [2] = assay: Antibacterial activity against methicillin-susceptible Staphylococcus aureus ATCC 29213
Pseudomonas aeruginosa = assay: Antibacterial activity against Pseudomonas aeruginosa ATCC 27853
Streptococcus pyogenes [3] = assay: Antibacterial activity against erythromycin-susceptible Streptococcus pyogenes isolate S2
Streptococcus pneumoniae [4] = assay: Antibacterial activity against erythromycin-resistant Streptococcus pneumoniae AB11 expressing ermB/mefA gene
Streptococcus pneumoniae [5] = assay: Antibacterial activity against erythromycin-resistant Streptococcus pneumoniae A22072 expressing mefA gene
Staphylococcus aureus [6] = assay: Antibacterial activity against erythromycin-susceptible Staphylococcus aureus ATCC 25923
Streptococcus pneumoniae [7] = assay: Antibacterial activity against erythromycin-resistant Streptococcus pneumoniae B1 expressing ermB gene
Streptococcus pyogenes [8] = assay: Antibacterial activity against erythromycin-resistant Streptococcus pyogenes isolate R2

| SMILES | MIC (Streptococcus pneumoniae [1]) [µg/mL] | MIC (Escherichia coli) [µg/mL] | MIC (Staphylococcus aureus [2]) [µg/mL] | MIC (Pseudomonas aeruginosa) [µg/mL] | MIC (Streptococcus pyogenes [3]) [µg/mL] | MIC (Streptococcus pneumoniae [4]) [µg/mL] | MIC (Streptococcus pneumoniae [5]) [µg/mL] | MIC (Staphylococcus aureus [6]) [µg/mL] | MIC (Streptococcus pneumoniae [7]) [µg/mL] | MIC (Streptococcus pyogenes [8]) [µg/mL] |
| --- | --- | --- | --- | --- | --- | --- | --- | --- | --- | --- |
| CC[C@H]1OC(=O)[C@H](C)[C@@H](O[C@H]2C[C@@](C)(OC)[C@@H](OC(=O)NCc3cn(Cc4ccccc4Cl)nn3)[C@H](C)O2)[C@H](C)[C@@H](O[C@@H]2O[C@H](C)C[C@H](N(C)C)[C@H]2O)[C@](C)(O)C[C@@H](C)CN(C)[C@H](C)[C@@H](O)[C@]1(C)O | 0.25 (≈ 0.251 µM) | 128 (≈ 128 µM) | 8 (≈ 8.02 µM) | 32 (≈ 32.1 µM) | 0.03 (≈ 0.0301 µM) | 0.5 (≈ 0.501 µM) | 0.25 (≈ 0.251 µM) | 1 (≈ 1 µM) | 1 (≈ 1 µM) | 64 (≈ 64.1 µM) |
| CC[C@H]1OC(=O)[C@H](C)[C@@H](O[C@H]2C[C@@](C)(OC)[C@@H](OC(=O)NCc3cn(Cc4ccccc4C)nn3)[C@H](C)O2)[C@H](C)[C@@H](O[C@@H]2O[C@H](C)C[C@H](N(C)C)[C@H]2O)[C@](C)(O)C[C@@H](C)CN(C)[C@H](C)[C@H]2OC(=O)O[C@@]21C | 0.5 (≈ 0.498 µM) | 128 (≈ 128 µM) | 32 (≈ 31.9 µM) | 64 (≈ 63.8 µM) | 0.06 (≈ 0.0598 µM) | 2 (≈ 1.99 µM) | 2 (≈ 1.99 µM) | 4 (≈ 3.99 µM) | 4 (≈ 3.99 µM) | 64 (≈ 63.8 µM) |
| CC[C@H]1OC(=O)[C@H](C)[C@@H](O[C@H]2C[C@@](C)(OC)[C@@H](OC(=O)NCc3cn(Cc4ccccc4)nn3)[C@H](C)O2)[C@H](C)[C@@H](O[C@@H]2O[C@H](C)C[C@H](N(C)C)[C@H]2O)[C@](C)(O)C[C@@H](C)CN(C)[C@H](C)[C@@H](O)[C@]1(C)O | 0.5 (≈ 0.519 µM) | 32 (≈ 33.2 µM) | 8 (≈ 8.31 µM) | 32 (≈ 33.2 µM) | 0.06 (≈ 0.0623 µM) | 4 (≈ 4.15 µM) | 1 (≈ 1.04 µM) | 1 (≈ 1.04 µM) | 2 (≈ 2.08 µM) | 32 (≈ 33.2 µM) |
| CC[C@H]1OC(=O)[C@H](C)[C@@H](O[C@H]2C[C@@](C)(OC)[C@@H](OC(=O)NCc3cn(Cc4ccc(Cl)cc4)nn3)[C@H](C)O2)[C@H](C)[C@@H](O[C@@H]2O[C@H](C)C[C@H](N(C)C)[C@H]2O)[C@](C)(O)C[C@@H](C)CN(C)[C@H](C)[C@@H](O)[C@]1(C)O | 0.5 (≈ 0.501 µM) | 64 (≈ 64.1 µM) | 16 (≈ 16 µM) | 32 (≈ 32.1 µM) | 0.03 (≈ 0.0301 µM) | 0.5 (≈ 0.501 µM) | 1 (≈ 1 µM) | 1 (≈ 1 µM) | 2 (≈ 2 µM) | 64 (≈ 64.1 µM) |
| CC[C@H]1OC(=O)[C@H](C)[C@@H](O[C@H]2C[C@@](C)(OC)[C@@H](OC(=O)NCc3cn(Cc4ccc(C)cc4)nn3)[C@H](C)O2)[C@H](C)[C@@H](O[C@@H]2O[C@H](C)C[C@H](N(C)C)[C@H]2O)[C@](C)(O)C[C@@H](C)CN(C)[C@H](C)[C@@H](O)[C@]1(C)O | 0.5 (≈ 0.512 µM) | 32 (≈ 32.7 µM) | 16 (≈ 16.4 µM) | 64 (≈ 65.5 µM) | 0.03 (≈ 0.0307 µM) | 1 (≈ 1.02 µM) | 0.5 (≈ 0.512 µM) | 1 (≈ 1.02 µM) | 0.5 (≈ 0.512 µM) | 64 (≈ 65.5 µM) |
| CC[C@H]1OC(=O)[C@H](C)[C@@H](O[C@H]2C[C@@](C)(OC)[C@@H](OC(=O)NCc3cn(Cc4cccc(Cl)c4)nn3)[C@H](C)O2)[C@H](C)[C@@H](O[C@@H]2O[C@H](C)C[C@H](N(C)C)[C@H]2O)[C@](C)(O)C[C@@H](C)CN(C)[C@H](C)[C@@H](O)[C@]1(C)O | 0.25 (≈ 0.251 µM) | 16 (≈ 16 µM) | 8 (≈ 8.02 µM) | 32 (≈ 32.1 µM) | 0.06 (≈ 0.0601 µM) | 1 (≈ 1 µM) | 0.25 (≈ 0.251 µM) | 1 (≈ 1 µM) | 0.5 (≈ 0.501 µM) | 64 (≈ 64.1 µM) |
| CC[C@H]1OC(=O)[C@H](C)[C@@H](O[C@H]2C[C@@](C)(OC)[C@@H](O)[C@H](C)O2)[C@H](C)[C@@H](O[C@@H]2O[C@H](C)C[C@H](N(C)C)[C@H]2O)[C@](C)(O)C[C@@H](C)CN(C)[C@H](C)[C@@H](O)[C@]1(C)O [AZITHROMYCIN] | 0.125 (≈ 0.167 µM) | 16 (≈ 21.4 µM) | 1 (≈ 1.34 µM) | 8 (≈ 10.7 µM) | 0.03 (≈ 0.0401 µM) | 256 (≈ 342 µM) | 4 (≈ 5.34 µM) | 0.25 (≈ 0.334 µM) | 128 (≈ 171 µM) | 128 (≈ 171 µM) |
| CC[C@H]1OC(=O)[C@H](C)[C@@H](O[C@H]2C[C@@](C)(OC)[C@@H](O)[C@H](C)O2)[C@H](C)[C@@H](O[C@@H]2O[C@H](C)C[C@H](N(C)C)[C@H]2O)[C@](C)(OC)C[C@@H](C)C(=O)[C@H](C)[C@@H](O)[C@]1(C)O [CLARITHROMYCIN] | 0.125 (≈ 0.167 µM) | 64 (≈ 85.6 µM) | 0.25 (≈ 0.334 µM) | 32 (≈ 42.8 µM) | 0.03 (≈ 0.0401 µM) | 128 (≈ 171 µM) | 4 (≈ 5.35 µM) | 0.12 (≈ 0.16 µM) | 128 (≈ 171 µM) | 128 (≈ 171 µM) |
